Reference: patent US5278308A, “Iodine derivatives of tetrabenazine” (The Trustees of The University of Pennsylvania, priority 1992, dated 1994)
Where two headings read alike, the source gives them in different places.

Columns and labels:
[1] = Biodistribution in rats (iv injection); format: in vivo; settings: rat; for Blood uptake (blood assumed 7% of body weight) / Heart uptake / Kidney uptake / Liver uptake / Lung uptake / Muscle uptake (muscle assumed 40% of body weight) / Skin uptake / Spleen uptake / Thyroid uptake / Brain uptake: iv
Procedure: While under ether anesthesia, each rat was injected in the femoral vein with 0.2 mL saline solution containing [^123 I]I-TBZ (1-5uCi) either racemic mixture, peak-A or peak-B. The rats were sacrificed at various time points postinjection by cardiac excision. The tissues were weighed and the radioactivity was measured with a Canberra gamma counter (Model 5000). The percent dose per organ was calculated by a comparison of the tissue counts to suitably diluted aliquots of the injected material. Total activities of blood and muscle were calculated assuming that they were 7% and 40% of total body weight, respectively Results are presented in Tables 3, 4A and 4B.

[2] = Regional brain distribution in rats (dissection, iv injection); format: in vivo; settings: for Regional brain uptake, cerebellum / Regional brain uptake, cortex / Regional brain uptake, hippocampus / Regional brain uptake, striatum / tissue uptake at 2 min / tissue uptake at 0.5 h / tissue uptake at 4 h / tissue uptake at 6 h / tissue uptake at 16 h: rat; for tissue uptake at 0.5 h: 30 min; for tissue uptake at 4 h: 240 min; for tissue uptake at 6 h: 2 rats only
Procedure: Regional brain distribution of [^123 I]I-TBZ (with either a racemic mixture, peak A or B) in rats was obtained after an iv injection. By dissecting, weighing and counting samples from different brain regions (cortex, striatum, hippocampus and cerebellum), % dose/gram of the samples was calculated by comparing the sample counts with the counts of the diluted initial dose. The ratio of uptake in each region was obtained by dividing % dose/gram of each region with that of the cerebellum. The effect of tetrahydrobenazine on the uptake of peak A or peak B was investigated by pretreating the rats with the TBZ 3 mg/rat at 3 min before iv injection of [^123 I]I-TBZ. At 20 min. post injection the rats were dissected and the regional brain dissection was carried out as above.

[3] = Stability of radiolabeled compound at room temperature; format: physicochemical
Procedure: The […] labeled iodovinYl-TBZ derivative ([^123 I]-TBZ, 2b) was prepared by an iododestannylation reaction. Aqueous hydrogen peroxide (1 mg/mL EtOH), 200 uL of 0.1 N HCl and 5 mCi [^123 I]sodium iodide were combined in a sealed vial. The reaction was allowed to proceed at room temperature for 20 min, after which it was terminated by addition of 0.1 mL sodium bisulfite (300 mg/ml). The reaction was then neutralized with NaHCO3 and extracted with ethyl acetate (3×1 mL). The combined organic layers were dried under nitrogen and the desired product was purified through HPLC on a reverse phase column (PRP-1, Hamilton) eluting with a isocratic solvent of 90% acetonitrile-10% buffer (5 mM 3,3'-dimethylglutaric acid, pH 7.0) and a flow rate of 1 mL/min. The radiochemical purity was analyzed by the above chromatographic system and the purified [^123 I] product (yield 50%, purity >98%) was obtained for animal experiments. The radiolabeled [^123 I]I-TBZ is stable at room temperature for up to 15 h.

[4] = system: monoamine uptake-storage mechanism of amine granules in the synapse; settings: in vivo; cited from earlier work
[5] = up to 300 mg daily, several trials; cited from earlier work
[6] = cerebellum, read-out: Regional brain uptake, cerebellum
[7] = cortex, read-out: Regional brain uptake, cortex
[8] = hippocampus, read-out: Regional brain uptake, hippocampus
[9] = striatum, read-out: Regional brain uptake, striatum

For COc1cc2c(cc1OC)C1CC(O)(C=C[123I])C(CC(C)C)CN1CC2 (racemic) [Compound 2b], the “Crossing of the intact blood brain barrier and localization in the brain (in words)” value [1] was “can cross the intact blood brain barrier and localize in the brain”, the “Blood uptake (blood assumed 7% of body weight)” value ([1]; 2 min) was 5.99 ± 2.54 % Dose/organ and the Heart uptake ([1]; 2 min) was 1.33 ± 0.19 % Dose/organ. For the same molecule, the Kidney uptake ([1]; 2 min) was 4.18 ± 0.46 % Dose/organ, the Liver uptake ([1]; 2 min) was 11.1 ± 1.22 % Dose/organ and the Lung uptake ([1]; 2 min) was 4.44 ± 1.44 % Dose/organ. The “Muscle uptake (muscle assumed 40% of body weight)” value ([1]; 2 min) was 6.93 ± 0.12 % Dose/organ, the Skin uptake ([1]; 2 min) was 4.08 ± 2.32 % Dose/organ and the Spleen uptake ([1]; 2 min) was 0.28 ± 0.04 % Dose/organ. For the same molecule, the Thyroid uptake ([1]; 2 min) was 0.06 ± 0.02 % Dose/organ, the Brain uptake ([1]; 2 min, listed as [^123 I]I-TBZ (2b)) was 0.92 % Dose/organ and the Brain uptake ([1]; 2 min, listed as [^123 I]I-TBZ racemic mixture) was 0.92 ± 0.13 % Dose/organ. The “Blood uptake (blood assumed 7% of body weight)” value ([1]; 30 min) was 1.84 ± 0.17 % Dose/organ, the Heart uptake ([1]; 30 min) was 0.34 ± 0.02 % Dose/organ and the Kidney uptake ([1]; 30 min) was 1.55 ± 0.21 % Dose/organ. For the same molecule, the Liver uptake ([1]; 30 min) was 9.75 ± 1.83 % Dose/organ, the Lung uptake ([1]; 30 min) was 1.02 ± 0.14 % Dose/organ and the “Muscle uptake (muscle assumed 40% of body weight)” value ([1]; 30 min) was 20.18 ± 2.19 % Dose/organ. It also gave a Skin uptake ([1]; 30 min) of 11.53 ± 2.54 % Dose/organ, a Spleen uptake ([1]; 30 min) of 0.29 ± 0.03 % Dose/organ and a Thyroid uptake ([1]; 30 min) of 0.03 ± 0.005 % Dose/organ. For the same molecule, the Brain uptake ([1]; 30 min, listed as [^123 I]I-TBZ (2b)) was 0.36 % Dose/organ, the Brain uptake ([1]; 30 min, listed as [^123 I]I-TBZ racemic mixture) was 0.36 ± 0.05 % Dose/organ and the “Blood uptake (blood assumed 7% of body weight)” value ([1]; 60 min) was 2.46 ± 0.56 % Dose/organ. It also gave a Brain uptake ([1]; 60 min) of 0.28 ± 0.05 % Dose/organ, a Heart uptake ([1]; 60 min) of 0.35 ± 0.06 % Dose/organ and a Kidney uptake ([1]; 60 min) of 1.47 ± 0.22 % Dose/organ. For the same molecule, the Liver uptake ([1]; 60 min) was 8.57 ± 0.41 % Dose/organ, the Lung uptake ([1]; 60 min) was 1.47 ± 0.64 % Dose/organ and the “Muscle uptake (muscle assumed 40% of body weight)” value ([1]; 60 min) was 14.9 ± 1.77 % Dose/organ. It also gave a Skin uptake ([1]; 60 min) of 6.39 ± 2.37 % Dose/organ, a Spleen uptake ([1]; 60 min) of 0.37 ± 0.10 % Dose/organ and a Thyroid uptake ([1]; 60 min) of 0.05 ± 0.002 % Dose/organ. For the same molecule, the “Blood uptake (blood assumed 7% of body weight)” value ([1]; 120 min) was 2.16 ± 0.21 % Dose/organ, the Brain uptake ([1]; 120 min) was 0.16 ± 0.03 % Dose/organ and the Heart uptake ([1]; 120 min) was 0.24 ± 0.06 % Dose/organ. For the same molecule, the Kidney uptake ([1]; 120 min) was 0.97 ± 0.13 % Dose/organ, the Liver uptake ([1]; 120 min) was 6.71 ± 0.84 % Dose/organ and the Lung uptake ([1]; 120 min) was 0.78 ± 0.43 % Dose/organ. The “Muscle uptake (muscle assumed 40% of body weight)” value ([1]; 120 min) was 15.4 ± 4.17 % Dose/organ, the Skin uptake ([1]; 120 min) was 7.05 ± 1.52 % Dose/organ and the Spleen uptake ([1]; 120 min) was 0.20 ± 0.06 % Dose/organ. For the same molecule, the Thyroid uptake ([1]; 120 min) was 0.08 ± 0.05 % Dose/organ, the “Blood uptake (blood assumed 7% of body weight)” value ([1]; 240 min) was 1.82 ± 0.26 % Dose/organ and the Brain uptake ([1]; 240 min) was 0.13 ± 0.04 % Dose/organ. It also gave a Heart uptake ([1]; 240 min) of 0.18 ± 0.03 % Dose/organ, a Kidney uptake ([1]; 240 min) of 0.73 ± 0.13 % Dose/organ and a Liver uptake ([1]; 240 min) of 4.57 ± 0.69 % Dose/organ. For the same molecule, the Lung uptake ([1]; 240 min) was 0.54 ± 0.09 % Dose/organ, the “Muscle uptake (muscle assumed 40% of body weight)” value ([1]; 240 min) was 11.24 ± 2.57 % Dose/organ and the Skin uptake ([1]; 240 min) was 4.21 ± 0.25 % Dose/organ. For the same molecule, the Spleen uptake ([1]; 240 min) was 0.18 ± 0.02 % Dose/organ, the Thyroid uptake ([1]; 240 min) was 0.15 ± 0.18 % Dose/organ and the “Blood uptake (blood assumed 7% of body weight)” value ([1]; 6 hr, 2 rats only) was 1.58 ± 0.15 % Dose/organ. It also gave a Brain uptake ([1]; 6 hr, 2 rats only) of 0.05 ± 0.001 % Dose/organ, a Heart uptake ([1]; 6 hr, 2 rats only) of 0.11 ± 0.01 % Dose/organ and a Kidney uptake ([1]; 6 hr, 2 rats only) of 0.45 ± 0.03 % Dose/organ. The Liver uptake ([1]; 6 hr, 2 rats only) was 3.21 ± 0.28 % Dose/organ, the Lung uptake ([1]; 6 hr, 2 rats only) was 0.36 % Dose/organ and the “Muscle uptake (muscle assumed 40% of body weight)” value ([1]; 6 hr, 2 rats only) was 6.94 ± 0.93 % Dose/organ. It also gave a Skin uptake ([1]; 6 hr, 2 rats only) of 4.15 ± 0.63 % Dose/organ, a Spleen uptake ([1]; 6 hr, 2 rats only) of 0.11 ± 0.004 % Dose/organ and a Thyroid uptake ([1]; 6 hr, 2 rats only) of 0.42 ± 0.15 % Dose/organ. For the same molecule, the “Blood uptake (blood assumed 7% of body weight)” value ([1]; 16 hr) was 0.42 ± 0.07 % Dose/organ, the Brain uptake ([1]; 16 hr) was 0.008 ± 0.001 % Dose/organ and the Heart uptake ([1]; 16 hr) was 0.02 ± 0.003 % Dose/organ. The Kidney uptake ([1]; 16 hr) was 0.12 ± 0.015 % Dose/organ, the Liver uptake ([1]; 16 hr) was 1.32 ± 0.096 % Dose/organ and the Lung uptake ([1]; 16 hr) was 0.07 ± 0.006 % Dose/organ. For the same molecule, the “Muscle uptake (muscle assumed 40% of body weight)” value ([1]; 16 hr) was 1.49 ± 0.23 % Dose/organ, the Skin uptake ([1]; 16 hr) was 2.04 ± 0.18 % Dose/organ and the Spleen uptake ([1]; 16 hr) was 0.02 ± 0.002 % Dose/organ. For the same molecule, the Thyroid uptake ([1]; 16 hr) was 0.009 ± 0.004 % Dose/organ, the “Regional distribution / selectivity in rat brain (in words)” value ([2]; listed as [^123 I]-2b) was “did not exhibit any selectivity” and the “Regional distribution / selectivity in rat brain (in words)” value ([2]; listed as [^123 I]I-TBZ (2b)) was “exhibits no regional selectivity”. The “Regional brain uptake, cerebellum” value ([2]; 60 min) was 0.14 ± 0.04 % Dose/g, the “Regional brain uptake, cortex” value ([2]; 60 min) was 0.14 ± 0.04 % Dose/g and the “Regional brain uptake, hippocampus” value ([2]; 60 min) was 0.14 ± 0.02 % Dose/g. The “Regional brain uptake, striatum” value ([2]; 60 min) was 0.15 ± 0.03 % Dose/g, the “Regional brain uptake, cerebellum” value ([2]; 120 min) was 0.14 ± 0.003 % Dose/g and the “Regional brain uptake, cortex” value ([2]; 120 min) was 0.15 ± 0.09 % Dose/g. For the same molecule, the “Regional brain uptake, hippocampus” value ([2]; 120 min) was 0.12 ± 0.04 % Dose/g, the “Regional brain uptake, striatum” value ([2]; 120 min) was 0.12 ± 0.04 % Dose/g and the tissue uptake at 2 min [2, 6] was 0.5 ± 0.13 %ID/g. For the same molecule, the tissue uptake at 0.5 h [2, 6] was 0.17 ± 0.03 %ID/g, the tissue uptake at 4 h [2, 6] was 0.051 ± 0.014 %ID/g and the tissue uptake at 6 h [2, 6] was 0.025 ± 0.0002 %ID/g. It also gave a tissue uptake at 16 h [2, 6] of 0.0063 ± 0.001 %ID/g, a tissue uptake at 2 min [2, 7] of 0.55 ± 0.24 %ID/g and a tissue uptake at 0.5 h [2, 7] of 0.2 ± 0.02 %ID/g. The tissue uptake at 4 h [2, 7] was 0.052 ± 0.021 %ID/g, the tissue uptake at 6 h [2, 7] was 0.022 %ID/g and the tissue uptake at 16 h [2, 7] was 0.0061 ± 0.0013 %ID/g. The tissue uptake at 2 min [2, 8] was 0.58 ± 0.16 %ID/g, the tissue uptake at 0.5 h [2, 8] was 0.21 ± 0.02 %ID/g and the tissue uptake at 4 h [2, 8] was 0.048 ± 0.015 %ID/g. It also gave a tissue uptake at 6 h [2, 8] of 0.028 ± 0.0064 %ID/g, a tissue uptake at 16 h [2, 8] of 0.0051 ± 0.002 %ID/g and a tissue uptake at 2 min [2, 9] of 0.54 ± 0.21 %ID/g. For the same molecule, the tissue uptake at 0.5 h [2, 9] was 0.21 ± 0.006 %ID/g, the tissue uptake at 4 h [2, 9] was 0.056 ± 0.014 %ID/g and the tissue uptake at 6 h [2, 9] was 0.024 ± 0.0029 %ID/g. For the same molecule, the tissue uptake at 16 h [2, 9] was 0.0062 ± 0.0026 %ID/g and the “Stable at room temperature for up to” value [3] was “up to 15 h”.
In the case of COc1cc2c(cc1OC)C1CC(=O)C(CC(C)C)CN1CC2 (centres unmarked) [TBZ, 3-(2-methylpropyl)-9,10-dimethoxy-1,3,4,6,7,11b-hexahydro-2H-benzo[a]quinolizin-2-one], the “Duration of depletion of catecholamines and serotonin in the brain (in words)” value [4] is given as “shorter duration”, the “Irreversible damage to storage mechanism / neurons (in words)” value [4] is given as “do not cause irreversible damage to neurons” and the “Effect on tardive dyskinesia in patients (in words)” value [5] is given as “improved tardive dyskinesia”.
